Measured values: patent US11667630B2, “Nitrogen-containing 6-membered cyclic compound” (Asahi Kasei Pharma Corporation, priority 2017, dated 2023)

Legend:
human EP4 receptor [1] = target: T1, human EP4 receptor (Homo sapiens, UniProt P35408); test: Measurement of EP4 agonist activity (cAMP production); assay type: cell-based; design: expressed in transfected cells; host or cells: HEK293; settings: cAMP production in HEK293 cells stably expressing human EP4 receptor; average values where measured two or more times
T1 sequence (P35408 whole entry): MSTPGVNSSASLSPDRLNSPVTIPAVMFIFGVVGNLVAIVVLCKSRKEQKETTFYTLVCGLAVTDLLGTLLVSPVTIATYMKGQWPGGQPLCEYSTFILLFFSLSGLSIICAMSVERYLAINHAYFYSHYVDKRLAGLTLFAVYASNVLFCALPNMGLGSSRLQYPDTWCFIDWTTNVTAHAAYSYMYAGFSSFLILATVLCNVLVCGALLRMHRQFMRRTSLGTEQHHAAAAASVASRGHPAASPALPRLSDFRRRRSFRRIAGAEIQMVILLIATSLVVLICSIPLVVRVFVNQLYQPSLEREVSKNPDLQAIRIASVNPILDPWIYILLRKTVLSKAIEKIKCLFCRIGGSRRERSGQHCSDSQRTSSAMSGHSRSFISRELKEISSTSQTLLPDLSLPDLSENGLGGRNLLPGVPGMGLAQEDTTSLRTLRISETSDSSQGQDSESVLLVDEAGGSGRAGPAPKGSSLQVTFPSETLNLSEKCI
Method: In order to investigate EP4 receptor agonist activity of the compounds of the present invention, production of cAMP was measured in HEK293 cells that were made to stably express the human EP4 receptor.
By using Refseq Database, prostaglandin E receptor was searched for. As a result, gene information of human EP4 (NM_000958) receptor was obtained. On the basis of this sequence information, the human EP4 receptor gene was cloned by PCR in a conventional manner using human cDNA as the template, and HEK293 cells that were made to stably express the human EP4 receptor were established. When cryopreserved cells of this strain were thawed and used, cells subcultured three times or more within a certain period of time (about 1 to 2 weeks) by using Dulbecco's Modified Eagle's Medium (Dulbecco's Modified Eagle's Medium may be henceforth abbreviated as DMEM) containing 10% FBS, 50 units each of penicillin and streptomycin were used. The subcultured cells were inoculated in wells of a poly-D-lysine-coated 96-well plate at a density of 2×10^4 to 2.5×10^4 cells/well, and cultured for one day. The medium in the wells was removed by suction, then DMEM (80 μL) was added to each well, and incubation was performed at 37° C. for 15 minutes. […] The reaction was allowed at 37° C. for 30 minutes, then the medium was removed by suction, Assay/Lysis Buffer (100 μL) contained in cAMP Screen Kit (produced by Applied Biosystems) was added to terminate the reaction. Then, the reaction mixture was incubated at 37° C. for 30 minutes to prepare a sample for quantification of cAMP, and the amount of cAMP in the sample was quantified according to the method indicated in cAMP Screen Kit. By non-linear regression of the compound concentration and the amount of cAMP, the concentration of the compound required for increasing cAMP to 50% of the maximum increase (EC50 value) was calculated by using the Kaleida Graph.

rat femur = test: Neo-osteogenesis action in rat femur; assay type: in vivo; settings: female SD rats, one week after administration; for Bone mineral content of femur 1/3 center region (mg) Left femur (administered with compound): 100 μg test compound in in situ-solidified gel solution injected between quadriceps and periosteum; for Bone mineral content of femur 1/3 center region (mg) Right femur (no administration of compound): contralateral femur, 100 μg test compound given at left femur
Method: Eight weeks old female SD rats (Charles River Japan) were fixed in the side lying position under triple anesthesia (medetomidine hydrochloride, midazolam, and butorphanol tartrate). After hair of the left femoral region was shaved with a hair clipper, and disinfection treatment was performed with 70% ethanol, an in situ-solidified gel solution of a test compound, specifically, a test compound dissolved in poly(lactic-co-glycolic acid) (RESOMER RG502H, produced by Evonik Industries)/poly(lactic-co-glycolic acid)-polyethylene glycol block copolymer (5050 DLG mPEG 5000, produced by Lakeshore Biomaterials)/N-methyl-2-pyrroridone (produced by Wako) (weight ratio 47%/3%/50%), was filled in a 1-mL syringe, a 21G injection needle was attached to the syringe, and the needle was transdermally stabbed from the quadriceps to the periosteum near the center of the femoral diaphyseal. Then, 100 μg as the amount of the test compound, or 50 μL as the administration volume of the solution was injected between the quadriceps and the periosteum, and the injection needle was drawn out. To the rats of the control group, the aforementioned in situ-solidified gel solution alone was administered. One week after the administration of the drug solution, the triple anesthesia was given to the animals, and they were fixed in the supine position, and euthanized by bleeding. […], circumferential tissues such as muscles were removed, the bone mineral content of the whole femur was measured by using a bone mineral analyzer DCS-600EX (produced by ALOKA), then it was divided into three portions along the long axis, and the bone mineral content of the center part (diaphysis) was evaluated. The test was performed with the groups each consisting of 6 animals.

human EP3 receptor = target: T2, human EP3 receptor (Homo sapiens, UniProt P43115); test: Receptor binding test, [3H]PGE2 binding inhibition, EP3; settings: [3H]PGE2 1.54 nmol/L, membrane fraction HTS092M, 25°C 60 minutes
T2 construct: purchased Merck Millipore HTS092M
T2 sequence (P43115 1-390): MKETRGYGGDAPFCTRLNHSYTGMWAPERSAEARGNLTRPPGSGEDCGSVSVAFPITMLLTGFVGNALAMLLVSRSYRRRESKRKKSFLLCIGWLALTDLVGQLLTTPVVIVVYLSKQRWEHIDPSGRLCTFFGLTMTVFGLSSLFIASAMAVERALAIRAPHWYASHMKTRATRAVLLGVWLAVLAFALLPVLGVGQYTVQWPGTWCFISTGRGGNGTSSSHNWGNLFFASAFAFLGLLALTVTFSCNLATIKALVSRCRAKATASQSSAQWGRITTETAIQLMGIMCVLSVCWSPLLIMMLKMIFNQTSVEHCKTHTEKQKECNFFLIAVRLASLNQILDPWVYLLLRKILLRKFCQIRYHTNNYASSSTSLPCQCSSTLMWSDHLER
Method: (§1) In order to evaluate selectivity to each EP receptor subtype, [^3H]PGE2 binding-inhibition activities of test compounds for cell membranes on which human EP2, human EP3, and human EP4 receptors were stably expressed were measured.
(§2) As the membrane fractions of the prostaglandin E receptors EP2, EP3, and EP4, 10.0 μg protein/tube each of HTS185M, HTS092M, and HTS142M of Merck Millipore were used, respectively. Each membrane fraction was incubated with a reaction mixture (250 μL/tube) containing a test compound and [3H]PGE2 at 25° C. for 60 minutes. […] After the reaction, the membrane fraction was collected on filter paper by using a cell harvester, the filter paper was transferred to a measurement vial, and the measurement was performed on a liquid scintillation counter.
(§3) The nonspecific binding was determined as binding observed in the presence of excess amount (10 μM) of unlabeled PGE2. The measurement of the [3H]PGE2 binding-inhibiting activity of a test compound was performed by adding the test compound at various concentrations. The following buffers were used for the reaction.
Buffer for EP3: 50 mmol/L Tris-HCl buffer containing 10 mmol/L MgCl2, and 1 mmol/L EDTA

human EP2 receptor = target: T3, human EP2 receptor (Homo sapiens, UniProt P43116); test: Receptor binding test, [3H]PGE2 binding inhibition, EP2; settings: [3H]PGE2 2.56 nmol/L, membrane fraction HTS185M, 25°C 60 minutes
T3 construct: purchased Merck Millipore HTS185M
T3 sequence (P43116 whole entry): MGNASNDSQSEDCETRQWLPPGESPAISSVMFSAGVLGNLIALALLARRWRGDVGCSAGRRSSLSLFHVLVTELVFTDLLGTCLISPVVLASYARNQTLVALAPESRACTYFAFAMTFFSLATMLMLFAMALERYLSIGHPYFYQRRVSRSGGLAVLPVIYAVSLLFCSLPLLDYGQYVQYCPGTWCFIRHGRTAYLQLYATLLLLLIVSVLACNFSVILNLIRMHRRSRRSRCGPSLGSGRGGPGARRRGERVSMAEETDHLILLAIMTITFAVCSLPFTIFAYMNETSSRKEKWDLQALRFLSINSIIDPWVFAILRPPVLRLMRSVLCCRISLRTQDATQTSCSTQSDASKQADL
Method: as §1, §2, §3
Buffer for EP2: 50 mmol/L HEPES-NaOH (pH 7.4) containing 5 mmol/L MgCl2, 1 mmol/L CaCl2), and 0.2% BSA

human EP4 receptor [2] = target: T1, human EP4 receptor; test: Receptor binding test, [3H]PGE2 binding inhibition, EP4; design: purchased Merck Millipore HTS142M; settings: [3H]PGE2 1.24 nmol/L, membrane fraction HTS142M, 25°C 60 minutes
Method: as §1, §2, §3
Buffer for EP4: 50 mmol/L HEPES-NaOH (pH7.4) containing 5 mmol/L MgCl2, 1 mmol/L CaCl2), and 0.2% BSA

SMILES | EC50 (human EP4 receptor [1]) [nM] | Bone mineral content of femur 1/3 center region (mg) Left femur (administered with compound) (rat femur) [mg] | Bone mineral content of femur 1/3 center region (mg) Right femur (no administration of compound) (rat femur) [mg] | IC50 (human EP3 receptor) [nM] | IC50 (human EP2 receptor) [nM] | IC50 (human EP4 receptor [2]) [nM]
Cc1cc(C#Cc2ccsc2)cc(CC(O)CCN2CCSC(=O)N2CCc2ccc(C(=O)O)s2)c1 (stereo not drawn) [Example 19, 5-(2-(4-(3-Hydroxy-4-(3-methyl-5-(thiophen-3-ylethynyl)phenyl)butyl)-2-oxo-1,3,4-thiadiazinan-3-yl)ethyl)thiophene-2-carboxylic acid] | 0.1 | 85.8 ± 2.3 | 59.6 ± 1.4 | – | – | –
O=C(O)c1ccc(CCN2C(=O)SCCN2CCC(O)Cc2cccc(C#Cc3nccs3)c2)s1 (stereo not drawn) [Example 13, 5-(2-(4-(3-Hydroxy-4-(3-(thiazol-2-ylethynyl)phenyl)butyl)-2-oxo-1,3,4-thiadiazinan-3-yl)ethyl)thiophene-2-carboxylic acid] | 0.34 | 82.0 ± 3.4 | 65.5 ± 2.7 | – | – | –
O=C(O)c1ccc(CCN2C(=O)SCCN2CCC(O)Cc2cc(C#Cc3ccsc3)cs2)s1 (stereo not drawn) [Example 22, 5-(2-(4-(3-Hydroxy-4-(4-(thiophen-3-ylethynyl)thiophen-2-yl)butyl)-2-oxo-1,3,4-thiadiazinan-3-yl)ethyl)thiophene-2-carboxylic acid] | 0.055 | 79.5 ± 1.9 | 60.3 ± 2.7 | – | – | –
O=C(O)c1ccc(CCN2C(=O)SCCN2CC[C@@H](O)Cc2cccc(C#Cc3ccoc3)c2)s1 [Example 26, (S)-5-(2-(4-(4-(3-(Furan-3-ylethynyl)phenyl)-3-hydroxybutyl)-2-oxo-1,3,4-thiadiazinan-3-yl)ethyl)thiophene-2-carboxylic acid] | 0.17 | 87.0 ± 1.6 | 65.9 ± 1.2 | > 1000 | > 1000 | 16.2
O=C(O)c1ccc(CCN2C(=O)SCCN2CCC(O)Cc2cccc(C#Cc3ccoc3)c2)s1 (stereo not drawn) [Example 10, 5-(2-(4-(4-(3-(Furan-3-ylethynyl)phenyl)-3-hydroxybutyl)-2-oxo-1,3,4-thiadiazinan-3-yl)ethyl)thiophene-2-carboxylic acid] | 0.065 | 78.0 ± 1.5 | 61.1 ± 0.5 | – | – | –
Cc1cc(C#Cc2cccc(CC(O)CCN3CCSC(=O)N3CCc3ccc(C(=O)O)s3)c2)cs1 (stereo not drawn) [Example 6, 5-(2-(4-(3-Hydroxy-4-(3-((5-methylthiophen-3-yl)ethynyl)phenyl)butyl)-2-oxo-1,3,4-thiadiazinan-3-yl)ethyl)thiophene-2-carboxylic acid] | 0.56 | 81.3 ± 3.6 | 64.7 ± 2.4 | – | – | –
O=C(O)c1ccc(CCN2C(=O)SCCN2CC[C@@H](O)Cc2cccc(C#Cc3cscn3)c2)s1 [Example 25, (S)-5-(2-(4-(3-Hydroxy-4-(3-(thiazol-4-ylethynyl)phenyl)butyl)-2-oxo-1,3,4-thiadiazinan-3-yl)ethyl)thiophene-2-carboxylic acid] | 0.095 | 79.1 ± 4.0 | 61.0 ± 2.1 | > 1000 | > 1000 | 10.9
